# Results: ChEMBL document CHEMBL6153084, “The development of α, β-unsaturated lactam-based andrographolide derivatives as anti-gastric cancer agents with the ability of inhibiting the ERK/c-Fos/Jun pathway” (Eur J Med Chem, 2025)
# Active and inactive are the calls of the source. The calls are words filed in the database; no cut-off is given here.
# Key:
# MGC-803 [1] = test: Induction of apoptosis in human MGC-803 cells assessed as downregulation of […] expression at 1 to 4 uM incubated for 24 hrs by Western blot analysis; assay type: functional, cell-based; conditions: dose 1-4 µM
# MGC-803 [2] = test: Induction of apoptosis in human MGC-803 cells assessed as late apoptotic cells at 4 uM incubated for 48 hrs by Annexin V-FITC/PI staining based flow cytometry analysis (reference value: 0.98%); assay type: functional
# MGC-803 [3] = test: Induction of apoptosis in human MGC-803 cells assessed as necrotic cells at 1 uM incubated for 48 hrs by Annexin V-FITC/PI staining based flow cytometry analysis (reference value: 0.83%); assay type: functional
# MGC-803 [4] = test: Induction of cell cycle arrest in human MGC-803 cells assessed as accumulation of cells at G2/M phase at 0.25 uM incubated for 48 hrs by PI staining based flow cytometry analysis; assay type: functional
# MGC-803 [5] = test: Antitumor activity against human MGC-803 cells xenografted in BALB/c mouse assessed as inhibition of tumor growth at 25 mg/kg, IG administered for 14 days; assay type: functional; conditions: MGC-803, po, 336 h, time 14 day, read-out: TGI
# MGC-803 [6] = test: Downregulation of c-jun level in human MGC-803 cells at 4 uM incubated for 24 hrs by immunoblotting analysis; assay type: functional, cell-based
# MGC-803 [7] = test: Inhibition of cell migration in human MGC-803 cells incubated for 24 hrs by microscopic analysis; assay type: functional, cell-based; conditions: dose <= 1.0 µM
# MGC-803 [8] = test: Induction of cell cycle arrest in human MGC-803 cells assessed as accumulation of cells at G2/M phase incubated for 48 hrs by PI staining based flow cytometry analysis; assay type: functional; conditions: dose 0.25-1 µM
# MGC-803 [9] = test: Downregulation of alpha-SMA expression in human MGC-803 cells at 1 to 4 uM incubated for 48 hrs by Western blot analysis; assay type: functional, cell-based; conditions: dose 1-4 µM
# MGC-803 [10] = test: Induction of apoptosis in human MGC-803 cells assessed as upregulation of cleaved PARP expression at 1 to 4 uM incubated for 24 hrs by Western blot analysis; assay type: functional, cell-based; conditions: dose 1-4 µM
# MGC-803 [11] = test: Induction of cell cycle arrest in human MGC-803 cells assessed as accumulation of cells at G2/M phase at 1 uM incubated for 48 hrs by PI staining based flow cytometry analysis; assay type: functional
# MGC-803 [12] = test: Induction of apoptosis in human MGC-803 cells assessed as early apoptotic cells at 2 uM incubated for 48 hrs by Annexin V-FITC/PI staining based flow cytometry analysis (reference value: 0.30%); assay type: functional
# ECa-109 cell line = test: Antiproliferative activity against human Eca-109 cells assessed as inhibition of cell growth incubated for 24 to 72 hrs by MTT assay; assay type: functional, cell-based; conditions: time 24-72 hrs
# MGC-803 [13] = test: Induction of apoptosis in human MGC-803 cells assessed as late apoptotic cells at 1 uM incubated for 48 hrs by Annexin V-FITC/PI staining based flow cytometry analysis (reference value: 0.98%); assay type: functional
# MCF7 = test: Antiproliferative activity against human MCF7 cells assessed as inhibition of cell growth incubated for 24 to 72 hrs by MTT assay; assay type: functional, cell-based; conditions: time 24-72 hrs
# MGC-803 [14] = test: Induction of apoptosis in human MGC-803 cells assessed as early apoptotic cells at 4 uM incubated for 48 hrs by Annexin V-FITC/PI staining based flow cytometry analysis (reference value: 0.30%); assay type: functional
# MGC-803 [15] = test: Downregulation of c-FOS level in human MGC-803 cells at 4 uM incubated for 24 hrs by immunoblotting analysis; assay type: functional, cell-based
# MGC-803 [16] = test: Antiproliferative activity against human MGC-803 cells assessed as inhibition of cell growth incubated for 24 to 48 hrs by MTT assay; assay type: functional, cell-based
# MGC-803 [17] = test: Inhibition of ERK phosphorylation in human MGC-803 cells at 4 uM measured after 24 hrs by Western blot analysis; assay type: cell-based
# [18] = Potency index, ratio of andrographolide IC50 to test compound IC50 for antiproliferative activity against human MGC-803 cells assessed as inhibition of cell growth incubated for 24 to 72 hrs by MTT assay; assay type: functional; conditions: time 24-72 hrs
# HGC-27 = test: Antiproliferative activity against human HGC-27 cells assessed as inhibition of cell growth incubated for 48 hrs by MTT assay; assay type: functional, cell-based; conditions: HGC-27, 48 h
# MGC-803 [19] = test: Induction of apoptosis in human MGC-803 cells assessed as necrotic cells at 2 uM incubated for 48 hrs by Annexin V-FITC/PI staining based flow cytometry analysis (reference value: 0.83%); assay type: functional
# MGC-803 [20] = test: Lipid-lowering activity in human MGC-803 cells assessed as reduction in lipid droplet accumulation by Oil Red O staining based analysis; assay type: functional, cell-based; conditions: dose 1-4 µM
# MGC-803 [21] = test: Antiproliferative activity against human MGC-803 cells assessed as inhibition of cell growth upto 2.5 uM by MTT assay; assay type: functional, cell-based; conditions: time 24-72 hrs
# MGC-803 [22] = test: Antitumor activity against human MGC-803 cells xenografted in BALB/c mouse assessed as inhibition of tumor growth at 25 to 50 mg/kg, IG administered for 14 days; assay type: functional, organism-based; conditions: dose 25-50 mg/kg, time 14.0 day
# [23] = Toxicity in BALB/c mouse implanted with human MGC-803 cells assessed as body weight loss at 25 to 50 mg/kg, IG; assay type: organism-based; conditions: in vivo, po, dose 25-50 mg/kg
# MGC-803 [24] = test: Induction of apoptosis in human MGC-803 cells assessed as viable cells at 2 uM incubated for 48 hrs by Annexin V-FITC/PI staining based flow cytometry analysis (reference value: 93.9%); assay type: functional; conditions: read-out: Activity
# MGC-803 [25] = test: Downregulation of ACAT2 mRNA level in human MGC-803 cells at 4 uM incubated for 24 hrs by RT-qPCR analysis; assay type: functional, cell-based
# AGS = test: Antiproliferative activity against human AGS cells assessed as inhibition of cell growth incubated for 48 hrs by MTT assay; assay type: functional, cell-based
# MGC-803 [26] = test: Lipid-lowering activity in human MGC-803 cells assessed as reduction in lipid size by Oil Red O staining based analysis; assay type: functional, cell-based; conditions: dose 1-4 µM
# MGC-803 [27] = test: Induction of apoptosis in human MGC-803 cells assessed as necrotic cells at 4 uM incubated for 48 hrs by Annexin V-FITC/PI staining based flow cytometry analysis (reference value: 0.83%); assay type: functional
# A549 = test: Antiproliferative activity against human A549 cells assessed as inhibition of cell growth incubated for 24 to 72 hrs by MTT assay; assay type: functional, cell-based; conditions: time 24-72 hrs
# MGC-803 [28] = test: Induction of ROS accumulation in human MGC-803 cells assessed as increase in fluorescence intensity at 1 to 4 uM incubated for 48 min by DCFH-DA and PI staining based microscopic analysis; assay type: functional, cell-based; conditions: dose 1-4 µM
# MGC-803 [29] = test: Induction of apoptosis in human MGC-803 cells assessed as early apoptotic cells at 1 uM incubated for 48 hrs by Annexin V-FITC/PI staining based flow cytometry analysis (reference value: 0.30%); assay type: functional
# MGC-803 [30] = test: Upregulation of E-cadherin expression in human MGC-803 cells at 1 to 4 uM incubated for 48 hrs by Western blot analysis; assay type: functional, cell-based; conditions: dose 1-4 µM
# MGC-803 [31] = test: Induction of cell cycle arrest in human MGC-803 cells assessed as reduction in CDC25C level incubated for 24 hrs by Western blot analysis; assay type: functional, cell-based; conditions: dose 1-4 µM
# MGC-803 [32] = test: Induction of apoptosis in human MGC-803 cells assessed as viable cells at 1 uM incubated for 48 hrs by Annexin V-FITC/PI staining based flow cytometry analysis (reference value: 93.9%); assay type: functional; conditions: read-out: Activity
smiles,measurement,setting,value
C=C1CC[C@@H]2[C@](C)(CO)[C@H](O)CC[C@@]2(C)[C@@H]1/C=C/C1=CC(=C/c2ccc(C)cc2)/NC1=O,Activity,MGC-803 [1],Active
same,Activity,MGC-803 [2],47.5%
same,Activity,MGC-803 [3],12.6%
same,Activity,MGC-803 [4],9.59%
same,inhibition in vivo at 25 mg/kg,MGC-803 [5],20%
same,Activity,MGC-803 [6],Active
same,inhibition,MGC-803 [7],Dose-dependent-effect
same,Activity,MGC-803 [8],Dose-dependent-effect
same,Activity,MGC-803 [9],Active
same,Activity,MGC-803 [10],Active
same,Activity,MGC-803 [11],25.4%
same,Activity,MGC-803 [12],5.47%
same,Activity,ECa-109 cell line,inactive
same,Activity,MGC-803 [13],15.1%
same,Activity,MCF7,inactive
same,Activity,MGC-803 [14],12.4%
same,Activity,MGC-803 [15],Active
same,IC50,MGC-803 [16],3.56 µM
same,inhibition,MGC-803 [17],Active
same,Ratio IC50,[18],~14
same,IC50,HGC-27,6.5 µM
same,Activity,MGC-803 [19],12.9%
same,Activity,MGC-803 [20],Dose-dependent-effect
same,Activity,MGC-803 [21],Time-dependent-effect
same,TGI,MGC-803 [22],Active
same,Activity,[23],Non-toxic
same,viability at 2 µM,MGC-803 [24],40.2%
same,Activity,MGC-803 [25],Active
same,IC50,AGS,5.24 µM
same,Activity,MGC-803 [26],Dose-dependent-effect
same,Activity,MGC-803 [27],4.54%
same,Activity,A549,inactive
same,Activity,MGC-803 [28],Active
same,Activity,MGC-803 [29],0.44%
same,Activity,MGC-803 [30],Active
same,Activity,MGC-803 [31],Dose-dependent-effect
same,viability at 1 µM,MGC-803 [32],71.9%
